Measurements as given in the METLIN SMRT retention time set (Domingo-Almenara et al. 2019).

Experiment: gradient 5% acetonitrile 3 min, to 50% in 2 min, to 85% in 15 min, held 3 min, 100 µL/min
Conditions: column: Zorbax Extend-C18 2.1 x 50 mm; eluents: water / acetonitrile, 0.1% formic acid
Procedure, shortened: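 The system's dead and dwell volumes were 40 μL and 900 μL, with a Zorbax Extend-C18 column (2.1 × 50 mm, 1.8 μm) run at 100 μL/min in water and acetonitrile containing 0.1% formic acid each. Pure standards were analyzed in mixtures of ~100 molecules by HPLC–quadrupole time-of-flight mass spectrometry in positive and negative ionization mode. Retention time was assigned from computationally picked, manually inspected adduct peaks.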

| RP-LC retention time [s] | SMILES |
| --- | --- |
| 712 | CSc1ccc(-c2nc3ccccn3c2Nc2ccc3c(c2)OCCO3)cc1 |
| 991 | Cn1nccc1-c1cccc(-c2noc(-c3cccc(NC(=O)c4ccco4)c3)n2)c1 |
| 590 | O=C(c1ccccc1Cl)N1CCN(c2cnn3c(C4CC4)nnc3c2)CC1 |
| 938 | CSc1cccc(NC(=O)CSc2nccc(N3CCN(c4cc(C)ccc4C)CC3)n2)c1 |
| 652 | O=C(c1cccc(Nc2c(-c3ccccc3)nc3cnccn23)c1)N1CCOCC1 |
| 863 | O=c1ccn(-c2ccc(F)c(F)c2)nc1-c1nc(-c2ccccc2F)no1 |
| 1210 | O=C(c1ccc(Cl)s1)N1CCc2nc(-c3ccc(Cl)cc3)ncc2C1 |
| 1200 | Cc1ccc(NC(=O)C2CCCN(c3nc4c(s3)c(C)nn4-c3ccccc3)C2)c(C)c1 (configuration not stated) |
| 731 | Cc1nc(-c2noc(-c3ccncc3)n2)cn1CC(=O)Nc1ccc(Cl)cc1 |
| 823 | COc1ccccc1-c1noc(C2CCCN2C(=O)Nc2cccc(C#N)c2)n1 (configuration not stated) |
| 1060 | CCc1sc(NC(=O)c2cc(C)on2)nc1-c1ccccc1 |
| 622 | Cc1cc(N2CCN(C(=O)Cc3ccccc3Br)CC2)nc2nncn12 |
| 818 | COc1ccc(OCC(=O)N2CCC(C(=O)NCCc3csc(-c4ccccc4)n3)CC2)cc1 |
| 1170 | CCOc1cccc(-c2noc(Cn3nc(-c4ccc(C)cc4)ccc3=O)n2)c1 |
| 1120 | O=C(Cn1cccc1-c1nc(-c2ccc3c(c2)OCO3)no1)N1CCCc2ccccc21 |
| 858 | COc1ccccc1N1CCN(C(=O)c2cn3cc(Cl)ccc3n2)CC1 |
| 1050 | CC1CCN(c2cc(-n3cnc(C(=O)N(C)Cc4ccccc4)c3)ncn2)CC1 |
| 650 | CC1CCN(C(=O)Cn2c(CNC(=O)c3ccco3)nc3ccccc32)CC1 |
| 647 | COCCN(Cc1ccc(F)cc1)Cc1cc(=O)n2cc(Cl)ccc2n1 |
| 805 | Cc1ccccc1Nc1c(-c2ccc(N3CCOCC3)cc2)nc2ccc(Cl)cn12 |
| 939 | Cc1ccccc1OCC(=O)Nc1cc2c(cc1Oc1ccccc1)n(C)c(=O)c(=O)n2C |
| 997 | Cc1ccc(-c2cn3c(CC(=O)N4CCN(c5ccc(Cl)cc5)CC4)csc3n2)cc1C |
| 951 | CCOc1ccc(NC(=O)CN2C(=O)CC(c3cccs3)=Nc3ccccc32)cc1 |
| 612 | Cc1ccc2c(=O)c3c([nH]c2c1C)CCN(CC(=O)Nc1ccccc1F)C3 |

The remaining lines, values behind:

| SMILES | RP-LC retention time [s] |
| --- | --- |
| CCC(=O)N1CCc2cc(N3CC(C(=O)Nc4cc(Cl)ccc4OC)CC3=O)ccc21 (configuration not stated) | 828 |
| CC(=O)c1cccc(NC(=O)Cn2cc3c(n2)CCCC3)c1 | 760 |
| Nc1cc(C2CCN(C(=O)c3ccc(Br)cc3)CC2)no1 | 716 |
| CC1=NOC(C)(CNC(=O)NC(C)(C)C)C1 (configuration not stated) | 627 |
| CCc1ccc(C2=C(C)C(N3CCCN(C(=O)C4CC4)CC3)=NS2(=O)=O)cc1 | 843 |
| COC(=O)c1c(C)[nH]c(C(=O)N2CCCC(C(=O)NCCC(C)C)C2)c1C (configuration not stated) | 730 |
| COc1ccc(CC(=O)N2CCCC2c2cc(C(C)C)on2)cc1 (configuration not stated) | 868 |
| O=C(NCc1cc(F)ccc1F)c1ccc2c(c1)nc1n2CCN(C2CCCCC2)C1=O | 830 |
| CCOC(=O)C1CCN(c2ncc(S(=O)(=O)c3ccccc3)c(N)n2)CC1 | 885 |
| CCNC(=O)N(CCOC)CC(=O)N1CCc2sccc2C1COc1ccccc1 (configuration not stated) | 815 |
| CCC(C)NC(=O)c1nc(Cn2c(=O)oc3ccc(Cl)cc32)no1 (configuration not stated) | 922 |
| COc1ccc(-c2cn3c(CC(=O)N(Cc4cccs4)C4CCCCC4)csc3n2)cc1OC | 931 |
| Cc1c(C(=O)Nc2c3c(nn2C(C)(C)C)CSC3)cccc1[N+](=O)[O-] | 814 |
| CCCCOc1nc2c(c(=O)n(C)c(=O)n2C)n1C | 874 |
| CCCc1ccc(S(=O)(=O)N2CCC(C(=O)NCc3csc(-c4cccs4)n3)CC2)cc1 | 1050 |
| COc1ccccc1OCc1nn2c(-c3ccccn3)nnc2s1 | 740 |
| COc1ccccc1C(=O)N1CCc2ccccc2[C@H]1C | 893 |
| Cc1cc(N2CCN(C(=O)c3ccc(Br)o3)CC2)nc(N2CCCCC2)n1 | 690 |
| O=c1[nH]c2ccc(NCc3ccc(F)cc3)cc2[nH]1 | 580 |
| CS(=O)(=O)Nc1ccc(C2(C(=O)NCc3ccc4c(c3)OCO4)CCCCC2)cc1 | 857 |
| O=C(c1cc(-c2cccc(F)c2)ns1)N1CCCC1 | 924 |
| CCOC(=O)c1c(S(=O)(=O)N2CCC(C(=O)Nc3ccccn3)CC2)c(C)n(C)c1C | 678 |

| SMILES | RP-LC retention time [s] |
| --- | --- |
| O=C(C1CCN(S(=O)(=O)c2ccc3[nH]c(=O)ccc3c2)CC1)N1CCOCC1 | 613 |
| CCC(C)NS(=O)(=O)c1cc(-c2nnc(-c3ccccc3)o2)ccc1OC (configuration not stated) | 955 |
| CCCNC(=O)c1ccc2nc(CCc3ccc(NC(=O)CCC)cc3)[nH]c2c1 | 617 |
| CCc1nnc(-c2cc(C)n(CC(=O)Nc3ccc(OC)cc3)c2C)o1 | 753 |
| CCn1c(=O)sc2cc(S(=O)(=O)N3CCC(C(=O)N4CCCCC4C)CC3)ccc21 (configuration not stated) | 896 |
| COCC(=O)Nc1ccc2c(c1)CN(S(C)(=O)=O)CCO2 | 641 |
| Cc1cc(-c2nnc(-c3ccccc3)o2)c(C)n1CC(=O)NC1CCCC1 | 886 |
| COc1cccc(CN2C[C@@H](CO)[C@H](c3ccccn3)C2)c1OC | 592 |
| CCOC(=O)CN1N=C(C(=O)N2CCC(C)CC2)S(=O)(=O)c2ccc(C)cc21 | 939 |
| CN(C)C(=O)N1CC(c2nc(-c3ccc(F)cc3)no2)C2(CCOCC2)C1 (configuration not stated) | 790 |
| CCn1cc(CCNC(=O)Nc2ccc(Br)cc2F)c2cccnc21 | 838 |
| O=C(CCN1C(=O)C2C3C=CC(C3)C2C1=O)N1CCN(c2ccccn2)CC1 (configuration not stated) | 572 |
| Cc1cc(N(C)C)n2nc(CN(C)Cc3ccccc3)nc2n1 | 577 |
| CCc1noc([C@@H]2CC(F)(F)CN2C(=O)c2coc(C)n2)n1 | 732 |
| O=C(c1nnc(-c2ccc(S(=O)(=O)N3CCCCC3)cc2)o1)N1CCC2(CC1)OCCO2 | 884 |
| O=C(NCCc1ccccc1)C1=C2CCCN2c2ccc(F)cc2S1(=O)=O | 909 |
| COCCNC(=O)CCc1nc2ccccc2[nH]c1=O | 591 |
| Brc1c(Br)c(Br)c2[nH]cnc2c1Br | 979 |
| Fc1ccccc1-c1ccc(CNCc2ccccn2)o1 | 655 |
| COc1ccccc1NC(=O)CN1C(=O)NC2(CCCCC2)C1=O | 760 |
| CCC(=O)N1CCc2cc(N3CC(C(=O)N4CCN(c5ccccn5)CC4)CC3=O)ccc21 (configuration not stated) | 584 |
